Patent US9861703B2 (Jinan Platinum Pharmatech Co. Ltd., priority 2013, dated 2018)
Where a name gives a salt, the structure may show the parent alone.

Key:
Aminopeptidase N = biological target: T1, Aminopeptidase N (Sus scrofa, UniProt P15145); test: Inhibition activity against enzyme in vitro (aminopeptidase N, L-Leu-p-nitroanilide substrate); assay type: biochemical; conditions: for IC50: 37° C., 0.5 h, absorbance 405 nm, PBS pH 7.2, read-out: IC50(μM) APN
T1 construct: purchased Sigma
T1 sequence (P15145 1-963): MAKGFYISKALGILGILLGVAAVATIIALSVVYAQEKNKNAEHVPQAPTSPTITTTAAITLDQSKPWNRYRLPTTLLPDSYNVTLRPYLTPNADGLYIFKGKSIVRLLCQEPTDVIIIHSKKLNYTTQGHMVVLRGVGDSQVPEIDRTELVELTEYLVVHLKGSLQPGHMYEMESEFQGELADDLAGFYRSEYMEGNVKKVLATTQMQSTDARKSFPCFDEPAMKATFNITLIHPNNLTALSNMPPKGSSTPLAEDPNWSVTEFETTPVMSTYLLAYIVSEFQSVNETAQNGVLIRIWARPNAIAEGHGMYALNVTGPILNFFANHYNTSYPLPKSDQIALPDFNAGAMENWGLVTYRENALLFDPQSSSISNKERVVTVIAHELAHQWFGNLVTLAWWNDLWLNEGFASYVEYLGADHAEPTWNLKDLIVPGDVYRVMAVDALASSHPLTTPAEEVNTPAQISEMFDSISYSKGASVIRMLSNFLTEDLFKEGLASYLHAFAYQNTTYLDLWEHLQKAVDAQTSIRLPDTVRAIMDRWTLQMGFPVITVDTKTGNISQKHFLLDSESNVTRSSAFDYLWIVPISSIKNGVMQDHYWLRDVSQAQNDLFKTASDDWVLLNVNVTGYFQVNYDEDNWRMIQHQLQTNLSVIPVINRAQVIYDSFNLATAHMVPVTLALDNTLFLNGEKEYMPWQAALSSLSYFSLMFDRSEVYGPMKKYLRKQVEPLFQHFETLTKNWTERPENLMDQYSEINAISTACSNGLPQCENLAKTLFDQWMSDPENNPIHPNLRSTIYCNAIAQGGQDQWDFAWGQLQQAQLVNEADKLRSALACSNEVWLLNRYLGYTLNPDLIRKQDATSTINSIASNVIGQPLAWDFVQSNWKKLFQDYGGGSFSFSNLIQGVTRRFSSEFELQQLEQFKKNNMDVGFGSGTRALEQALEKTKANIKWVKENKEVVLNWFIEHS
Method: Aminopeptidase N and L-Leu-p-nitroanilide as substrate were purchased from Sigma cooperation.
Preparation of Buffer Solution: 12.89 g Na2HPO4.12H2O and 2.18 g NaH2PO4.2H2O were dissolved in a 1000 mL volumetric flask, then the mixture was diluted to 1000 mL with fresh distilled water to obtain 50 mM Phosphate Buffer solution (PBS, pH 7.2), which was kept at room temperature to spare.
Aminopeptidase N was dissolved in the buffer solution to obtain 0.1 IU/mL solution.
The substrate was dissolved in DMSO to obtain a […] solution, which was kept in refrigerator to spare.
The aminopeptidase N solution 10 μL, the substrate solution 5 μL and compound with different concentration 40 μL were added into a 96-well cell plate, and then adjusted to 200 μL with phosphate buffer saline solution (pH 7.2). […] And the substrate solution 5 μL of blank group was adjusted to 200 μL with buffer solution. The mixture was incubated at 37° C. for 0.5 h, and absorbance was then determined at 405 nm wavelength Inhibitory ratio can be calculated as follows: […]
According to concentration of compound and corresponding inhibitory ratio, the IC50 value was calculated by using a fitting curve of Origin 7.5 software.

H22 tumor cells = test: Activities of compounds in H22 tumor cells bearing Kunming mice models (Example 34); conditions: intravenous injection, 58.3 mg/kg/d (0.1 mmol/kg/d)
Method: The ascites was extracted from H22 tumour bearing mice with well growth, followed by adding sterile PBS to dilute the ascites to a concentration of 8.5×10^7 cells/mL. 100 uL of the cells solution was suck up by a 1 mL sterile injector to inoculate into right oxter of mice. After 3 days, the mice were weighted and randomized to several groups (almost 8 mice per group, and a bit more in control group). These mice were administrated a predetermined dosage by intravenous or oral gavage with two days off when having administrated for 5 days until two cycles one of which had 7 days. The body weight of mouse was recorded at the beginning and ending of every cycle,
After being administrated for two cycles, the mice were weighted and recorded, then sacrificed by cervical dislocation to get lung, liver and spleen weighted respectively.
Overall difference was calculated by the function of one-way analysis of variance (One-Way ANOVA) in Origin 7.5 software; and t-test was used for pair-comparison between drug administrated group and blank group, and the inhibitory ratio of drug in each group was calculated based on the following equation: inhibitory ratio (100%)=(mean tumor weight of control group−mean tumor weight of drug administrated group)/mean tumor weight of control group×100.

[1] = test system: clear-cell ovarian carcinoma cell line ES-2; test: MTT proliferation inhibition, ES-2; assay type: cell-based; conditions: 48 h
Method: (§1) Human leukemia cell line K562, clear-cell ovarian carcinoma cell line ES-2, human prostate cancer cell line PC-3, human breast cancer cell line MCF-7, cell line Hela, human liver cancer cell line H7402 and human ovarian cancer cell line 3-AO were transferred into a culture flask and were cultured in a medium at 37° C. in a 5% CO2 and saturation humidity. One bottle of cells in logarithmic growth phase was picked out and was blew and beaten to be uniform with a pipette, then took some cell suspension solution to prepare blood counting plate smear to count cells under inverted microscope, and then adjusted the cell number to be 1×10^5/mL by adding some culture medium. Cells were seeded on a 96-well plate on which also drug tests performed. Blank control group, negative control group, positive control group and drug test group were established on the plate while the surrounding wells of the plate were not used (but filled with sterile PBS), wherein the blank control groups were prepared by addition of culture medium 150 μL per well, the negative control groups were prepared by addition of cell suspension solution 100 μL per well and culture medium 50 μL per well, the positive control groups were prepared by addition of cell suspension solution 100 μL per well and positive control drug solution 50 μL per well, the drug test groups were prepared by addition of cell suspension solution 100 μL per well and test compound solution 50 μL per well, and there were 5 different concentrations of drug in the positive control group and the drug test group respectively: 0.01, 0.1, 1, 10, 100 μmol·L^−1, each concentration was established with 3 parallel wells. After the drug was added, the 96-well plate was incubated for 48 h at 37° C. in a CO2 incubator of 5% CO2 and saturation humidity. Upon completion of the incubation, 20 μL MTT solution (concentration was 5 mg/mL) was added to each well and incubated for an additional 4 h, and after the 96-well plate was centrifuged at 2000 rpm for 30 min, medium of each well was suck out carefully and removed and 100 μL DMSO was added instead, followed by vibrating on a tablet shaker for 15 min to re-dissolve formazan crystals completely. OD value of each well was measured at 570 nm wavelength using an enzyme-linked immunosorbent assay reader to calculate cellular proliferation inhibitory ratio of each drug in different concentrations. And half-inhibitory concentration (IC50) was calculated using statistical software SPSS 16.0, wherein the cellular proliferation inhibitory ratio can be calculated as following equation: […]

[2] = test system: human leukemia cell line K562; test: MTT proliferation inhibition, K562; assay type: cell-based
Method: as §1

[3] = test system: human prostate cancer cell line PC-3; test: MTT proliferation inhibition, PC-3; assay type: cell-based; conditions: 48 h
Method: as §1

[4] = test system: human breast cancer cell line MCF-7; test: MTT proliferation inhibition, MCF-7; assay type: cell-based
Method: as §1

cell line Hela = test: MTT proliferation inhibition, Hela; assay type: cell-based; conditions: 48 h
Method: as §1

[5] = test system: human liver cancer cell line H7402; test: MTT proliferation inhibition, H7402; assay type: cell-based
Method: as §1

[6] = test system: human ovarian cancer cell line 3-AO; test: MTT proliferation inhibition, 3-AO; assay type: cell-based; conditions: 48 h
Method: as §1

[7] = test system: 7 cell lines (ES-2, K562, PC-3, MCF-7, Hela, H7402, 3-AO); test: MTT proliferation inhibition, all 7 tumor cell lines (summary in words); assay type: cell-based
Method: as §1

Molecule: CC(C)C[C@H](NC(=O)[C@@H](O)[C@H](N)Cc1ccccc1)C(=O)N[C@@H](C)C(=O)OCn1cc(F)c(=O)[nH]c1=O.Cl [BC-03, (S)-(5-fluoro-2,4-dioxo-3,4-dihydropyrimidinyl-1(2H))methyl-2-((S)-2-((2S,3R)-3-amino-2-hydroxy-4-phenylbutanamido)-4-methylpentanamido)propanoate hydrochloride]
- inhibitory activity against aminopeptidase N compared with positive control ubenimex (Aminopeptidase N): much more potent than the positive control drug ubenimex
- IC50 (Aminopeptidase N): 0.36 µM

Molecule: CC(C)C[C@H](NC(=O)[C@@H](O)[C@H](N)Cc1ccccc1)C(=O)NCCC(=O)OCn1cc(F)c(=O)[nH]c1=O [BC-04, (5-fluoro-2,4-dioxo-3,4-dihydropyrimidinyl-1(2H))methyl-4-((S)-2-((2S,3R)-3-amino-2-hydroxy-4-phenylbutanamido)-4-methylpentanamido)propanoate hydrochloride]
- inhibitory activity against aminopeptidase N compared with positive control ubenimex (Aminopeptidase N): much more potent than the positive control drug ubenimex
- IC50 (Aminopeptidase N): 1.3 µM

Molecule: CC(C)C[C@H](NC(=O)[C@@H](O)[C@H](N)Cc1ccccc1)C(=O)NCCCC(=O)OCn1cc(F)c(=O)[nH]c1=O [BC-05, (5-fluoro-2,4-dioxo-3,4-dihydropyrimidinyl-1(2H))methyl-6-((S)-2-((2S,3R)-3-amino-2-hydroxy-4-phenylbutanamido)-4-methylpentanamido)butanoate hydrochloride]
- inhibitory activity against aminopeptidase N compared with positive control ubenimex (Aminopeptidase N): much more potent than the positive control drug ubenimex
- IC50 (Aminopeptidase N): 1.39 µM

Molecule: CC(C)C[C@H](NC(=O)[C@@H](O)[C@H](N)Cc1ccccc1)C(=O)NCCCCCC(=O)OCn1cc(F)c(=O)[nH]c1=O [BC-06, hydrochloride]
- inhibitory activity against aminopeptidase N compared with positive control ubenimex (Aminopeptidase N): much more potent than the positive control drug ubenimex
- IC50 (Aminopeptidase N): 4.66 µM

Molecule: CC(C)C[C@H](NC(=O)[C@@H](O)[C@H](N)Cc1ccccc1)C(=O)N1CCC[C@H]1C(=O)OCn1cc(F)c(=O)[nH]c1=O [BC-07, (S)-(5-fluoro-2,4-dioxo-3,4-dihydropyrimidinyl-1(2H))methyl-1-((S)-2-((2S,3R)-3-amino-2-hydroxy-4-phenylbutanamido)-4-methylpentanamido)-2-tetrahydropyrrolidine carboxylate hydrochloride]
- inhibitory activity against aminopeptidase N compared with positive control ubenimex (Aminopeptidase N): much more potent than the positive control drug ubenimex
- IC50 (Aminopeptidase N): 0.15 µM
- Number of mice alive (H22 tumor cells; 8 mice, two cycles): 6
- Tumor growth inhibition (%) (H22 tumor cells; after two cycles): 43.61%
- Tumor weight (H22 tumor cells; after two cycles): 0.34 ± 0.24 g
- Body weight(g) Beginning (H22 tumor cells; beginning): 32.17 ± 3.86 g
- Body weight(g) Ending (H22 tumor cells; ending): 31.44 ± 5.01 g

Molecule: CC(C)C[C@H](NC(=O)[C@@H](O)[C@H](N)Cc1ccccc1)C(=O)ONC(N)=O [Compound 22, (2S,3R)-3-amino-2-hydroxy-N—((S)-4-methylvaleryl)oxy)ureido)-4-phenylbutanamide hydrochloride]
- inhibitory activity against aminopeptidase N compared with positive control ubenimex (Aminopeptidase N): comparable activity with ubenimex
- IC50 (Aminopeptidase N): 2.92 µM
- EC50 ([1]; Ovarian carcinoma cell): 5.66 µM
- EC50 ([2]; Homo sapiens, K562, 48 h): 6.52 µM
- EC50 ([3]; Homo sapiens): 13.3 µM
- EC50 ([4]; Homo sapiens, MCF7, 48 h): 6.74 µM
- EC50 (cell line Hela; Homo sapiens): 5.55 µM
- EC50 ([5]; Homo sapiens, H7402, 48 h): 7.98 µM
- EC50 ([6]; Homo sapiens): 9.06 µM
- anti-proliferation effect against all the tumor cells [7]: obvious anti-proliferation effect
- proliferation inhibition activity compared with 5-FU [7]: much more potent than 5-FU

Molecule: CC(C)C[C@H](NC(=O)[C@@H](O)[C@H](N)Cc1ccccc1)C(=O)O [ubenimex, Ubenimex, reference compound]
- EC50 ([1]; Ovarian carcinoma cell): > 400 µM
- EC50 ([2]; Homo sapiens, K562, 48 h): > 400 µM
- EC50 ([3]; Homo sapiens): > 400 µM
- EC50 ([4]; Homo sapiens, MCF7, 48 h): 32.7 µM
- EC50 (cell line Hela; Homo sapiens): 79.6 µM
- EC50 ([5]; Homo sapiens, H7402, 48 h): 189 µM
- EC50 ([6]; Homo sapiens): > 400 µM

Molecule: (S)-2-(4-(6-(5-(2-chloro-6-methylphenyl)-2-thiazolylcarbonyl amino)-2-methyl-4-pyrimidinyl)-1-piperazinyl)ethyl-2-((2S,3R)-3-amino-2-hydroxy-4-phenylbutyryl)-4-methylpentanoate hydrochloride [Compound 32]
- inhibitory activity against aminopeptidase N compared with positive control ubenimex (Aminopeptidase N): comparable activity with ubenimex
- IC50 (Aminopeptidase N): 7.88 µM
- EC50 [1]: 6.45 µM
- EC50 ([2]; 48 h): 6.33 µM
- EC50 [3]: 14.1 µM
- EC50 ([4]; 48 h): 3.65 µM
- EC50 (cell line Hela): 3.23 µM
- EC50 ([5]; 48 h): 6.75 µM
- EC50 [6]: 4.89 µM
- anti-proliferation effect against all the tumor cells [7]: obvious anti-proliferation effect
- proliferation inhibition activity compared with 5-FU [7]: much more potent than 5-FU

Molecule: (S)-2-((2S,4S)-4-((2S,4S,5R,6S)-4-((tert-butoxycarbonyl)amino)-5-hydroxy-6-methyl-2(2H)-tetrahydropyranyloxy))-2,5,12-trihydroxy-7-methoxy-6,11-dioxo-2-(1,2,3,4,6,11-hexahydrotetracenyl)-2-ethoxy-2-((2S,3R)-3-amino-2-hydroxy-4-phenylbutyryl)-4-methylpentanoate hydrochloride [Compound 28]
- inhibitory activity against aminopeptidase N compared with positive control ubenimex (Aminopeptidase N): comparable activity with ubenimex
- IC50 (Aminopeptidase N): 5.56 µM
- EC50 [1]: 3.34 µM
- EC50 ([2]; 48 h): 4.35 µM
- EC50 [3]: 7.67 µM
- EC50 ([4]; 48 h): 2.55 µM
- EC50 (cell line Hela): 1.99 µM
- EC50 ([5]; 48 h): 4.02 µM
- EC50 [6]: 3.02 µM
- anti-proliferation effect against all the tumor cells [7]: obvious anti-proliferation effect
- proliferation inhibition activity compared with 5-FU [7]: much more potent than 5-FU
